In the NIST ThermoML archive (doi:10.1021/je049788h):

Assay: xn = mol fraction of the nth substance listed
Conditions: 101.3 kPa, Liquid; for viscosity: Capillary tube (Ostwald / Ubbelohde) method; for mass density: Vibrating tube method

COCCOCCOCCOCCOC [2,5,8,11,14-pentaoxapentadecane] + O
Conditions | mass density, 298.15 K [kg/m3] | mass density, 313.15 K [kg/m3] | mass density, 323.15 K [kg/m3] | mass density, 333.15 K [kg/m3] | mass density, 343.15 K [kg/m3] | viscosity, 298.15 K [mPa·s] | viscosity, 313.15 K [mPa·s] | viscosity, 323.15 K [mPa·s] | viscosity, 333.15 K [mPa·s] | viscosity, 343.15 K [mPa·s]
x1 = 0.0199 | 1013.95 | 1006.73 | 1001.25 | 995.13 | 988.58 | 3.11 | 2.11 | 1.71 | 1.41 | 1.18
x1 = 0.051 | 1020.21 | 1011.89 | 1005.7 | 999.35 | 991.92 | 4.04 | 2.64 | 2.12 | 1.69 | 1.41
x1 = 0.1066 | 1038.9 | 1025.7 | 1016.67 | 1007.47 | 998.09 | 6.17 | 3.62 | 2.7 | 2.08 | 1.67
x1 = 0.195 | 1033.66 | 1019.8 | 1010.4 | 1000.92 | 991.28 | 6.22 | 3.77 | 2.86 | 2.24 | 1.8
x1 = 0.3008 | 1026.07 | 1012.12 | 1002.75 | 993.27 | 983.67 | 5.29 | 3.39 | 2.63 | 2.12 | 1.73
x1 = 0.4088 | 1020.42 | 1006.46 | 997.07 | 987.6 | 978.07 | 4.59 | 3.08 | 2.42 | 1.97 | 1.65
x1 = 0.5116 | 1016.56 | 1002.6 | 993.21 | 983.77 | 974.27 | 4.14 | 2.82 | 2.26 | 1.86 | 1.56
x1 = 0.6252 | 1013.52 | 999.55 | 990.2 | 980.79 | 971.34 | 3.81 | 2.65 | 2.15 | 1.78 | 1.51
x1 = 0.7016 | 1011.64 | 997.66 | 988.33 | 978.95 | 969.56 | 3.65 | 2.57 | 2.1 | 1.75 | 1.5
x1 = 0.8037 | 1009.81 | 995.86 | 985.65 | 977.24 | 967.88 | 3.51 | 2.49 | 2.06 | 1.73 | 1.47
x1 = 0.9044 | 1008.44 | 994.51 | 985.23 | 975.95 | 966.66 | 3.41 | 2.44 | 2.01 | 1.69 | 1.45
x1 = 0.9505 | 1007.83 | 993.92 | 984.67 | 975.4 | 966.13 | 3.37 | 2.42 | 2.002 | 1.69 | 1.41
x1 = 1 | 1006.65 | 993.28 | 984.05 | 974.8 | 965.55 | 3.38 | 2.42 | 2.004 | 1.69 | 1.42
